In PubChem BioAssay (NCI) one finds GI50 and TGI data, which are given here for 33 compounds.

Test in all cases: DTP human tumour cell line panel, 48 h
In assay [1] the test system is A549 NSCLC.
Assay [2] concerns BT-549 breast.
For assay [3], the system named is TK-10 renal.
Assay [4] concerns PC-3 prostate.
The subject of assay [5] is OVCAR-3 ovarian.
In assay [6] the test system is SNB-75 CNS.
In assay [7] the test system is SF-268 CNS.
For assay [8], the system named is MDA-N.
Assay [9] relates to SR leukemia.

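Where inhibition never reached the appropriate level, the endpoint shown equals the highest concentration tested. Otherwise, values were interpolated linearly from a five-concentration, 48-hour dose response in 96-well plates. Here, GI50 denotes the concentration required for 50% inhibition of growth. TGI is the concentration that stops growth completely.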

Regarding `Clc1ccc2c(NCCNc3nc(-c4ccccc4)cc(-c4ccccc4)n3)ccnc2c1`, the GI50 (usually the concentration that inhibits growth by half) in [1] is 2 µM; in assay [2] it was 1.57 µM; in assay [3] it was 1.86 µM; in assay [4] it was 1.88 µM. The TGI (commonly the concentration giving total growth inhibition) in assay [1] was 3.78 µM; in assay [2], 3.2 µM; in [3], 3.41 µM; in [4], 3.44 µM.

Take `Cc1cc(S(=O)(=O)Nc2nc(N)n(C)n2)c(S)cc1Cl`: the TGI in assay [5], in [1], in assay [6], in [2], in assay [7] and in assay [8] was greater than 10 µM throughout. Besides, the TGI in assay [3] and in [4] was greater than 10 µM in each case.

`Cc1cc2c3c(ccc4ncc(c43)CN2c2ccc(NS(C)(=O)=O)cc2)[nH]1`: the TGI in assay [5] was 81.5 µM; in [1], 88.5 µM; in assay [6], 44.3 µM; in [2] it was greater than 100 µM; in assay [7], 51.5 µM; in assay [8], greater than 100 µM. Besides, the figures for the TGI in assay [3] and in [4] were 73.1 µM and greater than 100 µM, respectively.

Regarding `Cc1c(-c2ccccc2)n(C)c2cn[nH]c(=O)c12`, the TGI in [5] was 47.7 µM; in assay [1] it was greater than 100 µM; in [2], greater than 100 µM; in assay [7], greater than 100 µM; in [8], greater than 100 µM; in [3] it was greater than 100 µM. Further, the TGI was 70.9 µM in assay [9] and 51.3 µM in assay [4].

As to `Cn1ncc2c(NCCc3ccccc3)nc(Cl)nc21`, the TGI was greater than 100 µM in assay [5]; 77.4 µM in [1]; 76.1 µM in assay [6]; 78.4 µM in [2]; greater than 100 µM in [7]; 56.5 µM in [8]. The TGI was found to be 65 µM in assay [3] and 71.8 µM in assay [4].

As to `Cn1cc(-c2ccc(CCOC3CCCCO3)cc2)c2c(C#N)cccc21` (stereo not given), the TGI in assay [5], in assay [1], in assay [2], in assay [7], in assay [8] and in assay [3] was greater than 100 µM in each case. For the same compound, the TGI in assay [9] and in assay [4] was greater than 100 µM each time.

For the compound `CCOC(=O)c1sc2nc(SC)nc(Nc3ccc(OC)c(OC)c3)c2c1N`, the TGI in assay [5] is greater than 100 µM; in [1], greater than 100 µM; in assay [2], greater than 100 µM; in assay [7], 80.9 µM; in assay [8], greater than 100 µM; in assay [3], 76.4 µM. For the same compound, the TGI in assay [9] and in assay [4] was greater than 100 µM in each case.

For the compound `CC(C)(C)OC(=O)C1/C(=C/CO)CN1C(=O)OC(C)(C)C` (stereo not given), the TGI in assay [5], in assay [1], in assay [2], in [7], in [8] and in [3] was greater than 100 µM each time. The TGI in [9] and in assay [4] was greater than 100 µM in each case.

Regarding `COc1cc(OC)c(/C=N/N=C(\N)NO)c(OC)c1`, the TGI in assay [5] is greater than 100 µM; in [1] it was greater than 100 µM; in assay [6], 64.7 µM; in assay [7], greater than 100 µM; in [8], greater than 100 µM; in assay [3] it was greater than 100 µM. Further, the TGI in [9] and in [4] was greater than 100 µM in each case.

Turning to `COc1cc2c[n+](C)c3c4ccccc4ccc3c2cc1OC`, the TGI in [5] is 34.9 µM; in assay [1] it was 23.2 µM; in assay [6], 18.7 µM; in [2], 16.7 µM; in [7] it was 6.77 µM; in [8], greater than 36.7 µM. Further, the TGI in assay [3] was greater than 100 µM; in assay [4] it was greater than 43.2 µM.

Turning to `Cc1sc(N=Nc2c(O)[nH]c3ccccc23)nc1-c1ccccc1`, the TGI came to 27.2 µM in assay [5]; 32.6 µM in assay [1]; 47 µM in assay [6]; 41.5 µM in assay [2]; 38.5 µM in assay [7]; 76.4 µM in [8]. In assay [3], the TGI was found to be 59.2 µM.

For the compound `CCCCCCCCCCCCCCCCCCNc1ccn(C2OC(CO)C(OP(=O)(O)OCC3CCC(n4ccc(N)nc4=O)O3)C2O)c(=O)n1` (stereo not given), the concentration for total growth inhibition (TGI) was greater than 100 µM in assay [5]; greater than 100 µM in [1]; greater than 100 µM in [6]; 89.8 µM in assay [2]; greater than 100 µM in assay [7]; greater than 100 µM in assay [8]. In addition, the TGI in assay [3] is greater than 100 µM; in assay [4] it was 40.6 µM.

For `COC(=O)C1=NN2c3ccccc3CN([C@@H](C)c3ccccc3)C(=O)[C@@H]2C1`, the TGI in [5] was 97.9 µM; in assay [1] it was greater than 100 µM; in assay [2], 64.9 µM; in assay [7] it was greater than 100 µM; in assay [8], greater than 100 µM; in [3], greater than 100 µM. The TGI is 82.9 µM in [9] and greater than 100 µM in [4].

Turning to `COC(=O)c1ccccc1CC1Cc2cc3c(cc2C1)CCC3`, the TGI in [5], in assay [1], in [6], in [7], in assay [8] and in assay [3] was greater than 100 µM throughout. Besides, the TGI was 29.2 µM in assay [9] and greater than 100 µM in [4].

As for `COc1cc(Cn2c3c(c4cc(O)ccc42)C(=O)c2ccccc2C3=O)cc(OC)c1`, the TGI in assay [5] was 77.7 µM; in assay [1], 49.6 µM; in [2], 4.86 µM; in assay [7] it was 15.5 µM; in assay [8] it was greater than 100 µM; in assay [3], 34.9 µM. Moreover, the TGI amounted to 25.2 µM in assay [9] and 11.8 µM in [4].

Regarding `CCCCc1ccc(Nc2nc(Cl)c3[nH]cnc3n2)cc1`, the total growth inhibition concentration (TGI) in assay [5] was 28.9 µM; in [1], greater than 100 µM; in assay [6], 85.4 µM; in [2], 65.4 µM; in assay [7] it was 59.9 µM; in assay [8], 43.1 µM. Also, the TGI is 50.6 µM in assay [3] and greater than 100 µM in assay [9].

For the compound `CN1N=C(c2ccncc2)OC1c1ccc(Cl)c(Cl)c1` (stereo not given), the TGI in assay [5], in assay [1], in assay [7], in [8], in assay [3] and in assay [4] was greater than 100 µM each time.

As for `COc1ccc(C2=C(OC(C)=O)c3cccn3-c3ccccc3S2)cc1`, the TGI in assay [1] was greater than 10 µM; in [6] it was greater than 10 µM; in assay [7], greater than 10 µM; in assay [8] it was 1.44 µM; in assay [3] it was greater than 10 µM; in [9], greater than 10 µM. In assay [4], the TGI is greater than 10 µM.

With `CC(=O)CN=C(C)NNc1ccc([N+](=O)[O-])cc1[N+](=O)[O-]`, the TGI in [5], in assay [1], in assay [6], in [7], in assay [8] and in assay [9] was greater than 100 µM in each case. The TGI in assay [4] was greater than 100 µM.

`Nc1nc(Cl)c2ncn(Cc3ccccc3CCl)c2n1`: the TGI in assay [5] was 10.9 µM; in assay [1], 53.1 µM; in assay [6], 23.8 µM; in assay [2], 22.9 µM; in assay [7] it was 14.5 µM; in assay [3], 36.7 µM. The TGI in assay [9] is greater than 100 µM; in assay [4], 68.1 µM.

On to `COc1cc(CNC(=O)CCCCCCCC/C=C/Br)ccc1O`, for which the TGI in [5], in [1], in assay [6], in assay [7], in assay [8] and in assay [3] was greater than 10 µM in each case. Further, the TGI in [9] and in assay [4] was greater than 10 µM in each case.

`CC(C)CCNC(=O)c1ccc(CNC(=O)/C=C/c2ccc(-c3ccccc3[N+](=O)[O-])o2)cc1`: the TGI is greater than 100 µM in assay [5]; greater than 100 µM in assay [1]; greater than 100 µM in assay [6]; 63.1 µM in assay [7]; greater than 100 µM in assay [8]; greater than 100 µM in [9]. This compound came in with a TGI in [4] greater than 100 µM.

For the compound `COc1cc2cc(C(=O)N3CC(COS(C)(=O)=O)c4c3cc([N+](=O)[O-])c3ccccc43)[nH]c2c(OC)c1OC` (stereo not given), the TGI in [5] was greater than 31.6 µM; in assay [1] it was greater than 31.6 µM; in assay [6] it was greater than 31.6 µM; in assay [2] it was greater than 31.6 µM; in [7], greater than 31.6 µM; in assay [8], greater than 100 µM. Besides, the TGI in [3] and in [4] was greater than 31.6 µM in each case.

Regarding `COc1cc(/C=C2\NC(=O)N(/C=C3\C(=O)Oc4ccccc4C3=O)C2=O)ccc1O`, the TGI in assay [1] is greater than 100 µM; in assay [6] it was 77 µM; in assay [2], greater than 100 µM; in assay [7] it was greater than 100 µM; in [8] it was greater than 100 µM; in [3], greater than 100 µM. The same compound registered a TGI in assay [4] greater than 100 µM.

As for `O=C(O)/C(=C\c1ccccc1)Cc1ccccc1`, the TGI in assay [5], in assay [1], in [6], in [2], in [7] and in [8] was greater than 100 µM in each case. For the same compound, the TGI in assay [3] and in assay [4] was greater than 100 µM each time.

Regarding `COC(=O)[C@]1(c2cc3ccccc3[nH]2)CC2CN(CC(=O)N(C)OC)C1C1OC(C)(C)OC21` (stereo not given in full), the TGI in assay [5], in assay [1], in [6], in [2], in assay [7] and in assay [8] was greater than 100 µM each time. The TGI in assay [3] and in [4] was greater than 100 µM throughout.

As to `OCCOCCO[P+]1(OCCOCCO)n2c3ccc2C(c2ccccc2)=C2C=CC(=N2)C(c2ccccc2)=c2ccc(n21)=C(c1ccccc1)C1=NC(=C3c2ccccc2)C=C1`, the TGI was found to be 0.158 µM in [5]; 3.29 µM in [1]; 0.121 µM in assay [8]; 1.74 µM in assay [3]; 1.2 µM in assay [4].

As for `Nc1ncnc2c1ncn2CC(OCP(=O)(O)O)Oc1ccccc1` (stereo not given), the TGI in assay [5], in assay [1], in [6], in assay [7], in [8] and in assay [3] was greater than 100 µM in each case. The compound also showed a TGI in [4] greater than 100 µM.

For `COc1cccc(/C=N/n2c(-c3ccccc3)n[nH]c2=O)c1`, the TGI is greater than 100 µM in assay [5]; greater than 100 µM in [1]; 93.2 µM in assay [6]; 86.1 µM in assay [2]; 39.8 µM in assay [7]; greater than 100 µM in [8]. In addition, the TGI in assay [4] was greater than 100 µM.

For the compound `Nc1nc(Cl)cc(Nc2ccc3c(c2)CCC3)n1`, the TGI in assay [5], in [1], in [2], in assay [7], in [8] and in assay [3] was greater than 100 µM each time. In addition, the values for the TGI in assay [9] and in assay [4] were 63.3 µM and greater than 100 µM, respectively.

Turning to `O=[N+]([O-])c1cc(Cl)ccc1S(=O)(=O)c1ccccc1`, the TGI in assay [5], in assay [1], in assay [6], in assay [2], in [7] and in [3] was greater than 100 µM each time. In [4], this compound returned a TGI greater than 100 µM.

Turning to `COc1cc2c(cc1OC)-c1cc3ccccc3c(=O)n1CCC2`, the TGI in assay [5] is 60.4 µM; in [1] it was greater than 100 µM; in assay [6] it was greater than 90.3 µM; in assay [2], 89.2 µM; in [7], greater than 100 µM; in assay [8] it was 33.6 µM. Further, the TGI in assay [3] is greater than 100 µM; in assay [4], 62.7 µM.

Consider `CC(O[Si](C)(C)C(C)(C)C)[C@H](NC(=O)OCC(Cl)(Cl)Cl)C(=O)O` (stereo not given in full), for which the TGI in assay [5], in assay [1], in assay [2], in assay [7], in assay [3] and in assay [9] was greater than 100 µM in each case. The compound also came in with a TGI in assay [4] greater than 100 µM.
